Experimental data from patent US11427541B2, “Salt forms of a complement component C5A receptor” (CHEMOCENTRYX, INC., priority 2019, dated 2022).
Where a name gives a salt, the structure may show the parent alone.

Columns and labels:
[1] = in vivo rat PK study, aqueous liquid suspension with 0.5% w/v Hydroxypropyl Cellulose and 0.5% w/v Poloxamer F-68 (Example 8); conditions: oral 10 mg/kg of Compound 1, 5 mL/kg
Protocol: (§1) An in vivo rat PK study was conducted to compare the PK profile and bioavailability of the free base crystalline form of Compound 1 against various salt forms of Compound 1 in an aqueous liquid suspension formulation, which contained 0.5% w/v Hydroxypropyl Cellulose (Klucel GF grade) and 0.5% w/v Poloxamer F-68 (BASF Kolliphor P188). Each animal was orally administrated 10 mg/kg of Compound 1 at 5 mL/kg dosing volume (a dosing concentration of 2 mg/mL).

[2] = in vivo rat PK study, aqueous liquid suspension with 1% HPMC (Example 9); conditions: oral 10 mg/kg of Compound 1, 5 mL/kg, suspension in 1% HPMC
Protocol: as §1, with “1% HPMC.” for “0.5% w/v Hydroxypropyl Cellulose (Klucel GF grade) and 0.5% w/v Poloxamer F-68 (BASF Kolliphor P188).”

[3] = hygroscopicity and physical stability by dynamic vapor sorption (DVS); format: physicochemical; conditions: for DVS weight change from 5% to 95% relative humidity (RH): 5% to 95% RH; for change in XRPD before and after the DVS measurement: data not shown; for DVS weight change from about 0% RH to about 55% relative humidity: about 0% to about 55% RH; for DVS weight change from about 0% RH to about 75% relative humidity: about 0% to about 75% RH
Protocol: To evaluate the hygroscopicity and physical stability of the collected crystals under different humidity, dynamic vapor sorption (DVS) data was collected at 25° C. after the sample was pre-equilibrated at 0% RH to remove unbounded water. DVS was measured using a VTI SGA-100 Vapor Sorption Analyzer. Sorption and desorption data was collected over a range from 5% to 95% RH at 10% RH increments under a nitrogen purge. The equilibrium criterion used for analysis was less than 0.0100% weight change in 5 minutes with a maximum equilibrium time of 3 hours. [table]

[4] = stability of the crystals on storage and heating (HPLC, LCMS, NMR, XRPD); format: physicochemical; conditions: for decomposition on storage (HPLC, LCMS and NMR analysis): 40° C. and 75% relative humidity for 45 days; for physical form by XRPD before and after the stability tests: both samples of the stability tests
Protocol: The stability of the collected crystals were tested by storing the crystals at 40° C. and 75% relative humidity for 45 days.

[5] = as above; format: physicochemical
[6] = suspension in 0.5% HPC / 0.5% Poloxamer F-68
[7] = listed as Crystalline Camsylate
[8] = 55° C. in a vacuum oven for 24 h
[9] = 75° C. for 1 week (open to air)
[10] = listed as Crystalline Napsylate
[11] = 25° C., listed as Napsylate Salt of Compound 1 (Form I)
[12] = in vivo, po, 10 mg/kg, suspension in 0.5% HPC / 0.5% Poloxamer F-68
[13] = in vivo, po, 10 mg/kg, suspension in 0.5% HPC / 0.5% Poloxamer F-68, read-out: AUC0-t
[14] = in vivo, po, 10 mg/kg, suspension in 0.5% HPC / 0.5% Poloxamer F-68, read-out: Cmax
[15] = in vivo, po, 10 mg/kg, read-out: AUC0-t
[16] = in vivo, po, 10 mg/kg, read-out: Cmax
[17] = listed as Crystalline Edisylate
[18] = listed as Crystalline Napadisylate
[19] = 25° C., listed as Napadisylate Salt of Compound 1 (Form I)

Row | Compound | AUC0-t [1, 6] | AUCinf [1, 6] | Cmax [1, 6] | change in XRPD before and after the DVS measurement [3] | decomposition on storage (HPLC, LCMS and NMR analysis) [4] | physical form by XRPD before and after the stability tests [4] | decomposition on heating (HPLC, LCMS and NMR analysis) [5, 8] | decomposition on heating (HPLC, LCMS and NMR analysis) [5, 9] | also measured
1 | Cc1ccc(NC(=O)[C@H]2CCCN(C(=O)c3c(C)cccc3F)[C@H]2c2ccc(NC3CCCC3)cc2)cc1C(F)(F)F [Camsylate Salt (Form I), N-cyclopentyl-4-((2R,3S)-1-(2-fluoro-6-methylbenzoyl)-3-((4-methyl-3-(trifluoromethyl)phenyl)-carbamoyl)piperidin-2-yl)benzenaminium (1S)-(+)-10-camphorsulfonate] | 3870 ng·h/mL | 3922 ng·h/mL | 738 ng/mL | No change in XRPD | did not result in any appreciable decomposition | remained the same | did not result in any appreciable decomposition | did not result in any appreciable decomposition | AUC0-t [2, 7]: 2877 ng·h/mL; AUCinf [2, 7]: 3005 ng·h/mL; Cmax [2, 7]: 553 ng/mL; DVS weight change from 5% to 95% relative humidity (RH) ([3]; 25° C., listed as Camsylate Salt of Compound 1 (Form I)): 0.96%; DVS weight change from about 0% RH to about 65% relative humidity ([3]; 25° C., about 0% to about 65% RH): about 0.35%
2 | Cc1ccc(NC(=O)[C@H]2CCCN(C(=O)c3c(C)cccc3F)[C@H]2c2ccc(NC3CCCC3)cc2)cc1C(F)(F)F [Napsylate Salt (Form I), N-cyclopentyl-4-((2R,3S)-1-(2-fluoro-6-methylbenzoyl)-3-((4-methyl-3-(trifluoromethyl)phenyl)-carbamoyl)piperidin-2-yl)benzenaminium naphthalene-2-sulfonate] | 4876 ng·h/mL | 5057 ng·h/mL | 778 ng/mL | No change in XRPD | did not result in any appreciable decomposition | remained the same | did not result in any appreciable decomposition | did not result in any appreciable decomposition | AUC0-t [2, 10]: 4277 ng·h/mL; AUCinf [2, 10]: 4589 ng·h/mL; Cmax [2, 10]: 601 ng/mL; DVS weight change from 5% to 95% relative humidity (RH) [3, 11]: 0.65%; DVS weight change from about 0% RH to about 55% relative humidity [3, 11]: about 0.2%
3 | Cc1ccc(NC(=O)[C@H]2CCCN(C(=O)c3c(C)cccc3F)[C@H]2c2ccc(NC3CCCC3)cc2)cc1C(F)(F)F.Cc1ccc(S(=O)(=O)O)cc1 [Tosylate Salt (Form I), N-cyclopentyl-4-((2R,3S)-1-(2-fluoro-6-methylbenzoyl)-3-((4-methyl-3-(trifluoromethyl)phenyl)-carbamoyl)piperidin-2-yl)benzenaminium 4-methylbenzenesulfonate] | – | – | – | No change in XRPD | did not result in any appreciable decomposition | remained the same | did not result in any appreciable decomposition | did not result in any appreciable decomposition | AUC(0-inf) [1, 12]: 4150 ng·h/mL; AUC0-t [1, 13]: 4040 ng·h/mL; Cmax [1, 14]: 591 ng/mL; AUC(0-inf) ([2]; in vivo, po, 10 mg/kg): 3370 ng·h/mL; AUC0-t [2, 15]: 3310 ng·h/mL; Cmax [2, 16]: 649 ng/mL; DVS weight change from 5% to 95% relative humidity (RH) ([3]; 25° C.): 0.83%; DVS weight change from about 0% RH to about 75% relative humidity ([3]; 25° C.): about 0.58%
4 | Cc1ccc(NC(=O)[C@H]2CCCN(C(=O)c3c(C)cccc3F)[C@H]2c2ccc(NC3CCCC3)cc2)cc1C(F)(F)F.O=S(=O)(O)c1ccccc1 [Besylate Salt (Form I), N-cyclopentyl-4-((2R,3S)-1-(2-fluoro-6-methylbenzoyl)-3-((4-methyl-3-(trifluoromethyl)phenyl)-carbamoyl)piperidin-2-yl)benzenaminium benzenesulfonate] | – | – | – | No change in XRPD | did not result in any appreciable decomposition | remained the same | did not result in any appreciable decomposition | did not result in any appreciable decomposition | AUC(0-inf) [1, 12]: 2600 ng·h/mL; AUC0-t [1, 13]: 2510 ng·h/mL; Cmax [1, 14]: 493 ng/mL; AUC(0-inf) ([2]; in vivo, po, 10 mg/kg): 2220 ng·h/mL; AUC0-t [2, 15]: 2170 ng·h/mL; Cmax [2, 16]: 390 ng/mL; DVS weight change from 5% to 95% relative humidity (RH) ([3]; 25° C.): 0.73%; DVS weight change from about 0% RH to about 75% relative humidity ([3]; 25° C.): about 0.5%
5 | Cc1ccc(NC(=O)[C@H]2CCCN(C(=O)c3c(C)cccc3F)[C@H]2c2ccc(NC3CCCC3)cc2)cc1C(F)(F)F [Crystalline Free Base, (2R,3S)-2-(4-(cyclopentylamino)phenyl)-1-(2-fluoro-6-methylbenzoyl)-N-(4-methyl-3-(trifluoromethyl)phenyl)piperidine-3-carboxamide] | – | – | – | – | – | – | – | – | AUC0-t [2]: 1361 ng·h/mL; AUCinf [2]: 1377 ng·h/mL; Cmax [2]: 168 ng/mL
6 | Cc1ccc(NC(=O)[C@H]2CCCN(C(=O)c3c(C)cccc3F)[C@H]2c2ccc(NC3CCCC3)cc2)cc1C(F)(F)F [Edisylate Salt (Form I), N-cyclopentyl-4-((2R,3S)-1-(2-fluoro-6-methylbenzoyl)-3-((4-methyl-3-(trifluoromethyl)phenyl)carbamoyl)piperidin-2-yl)benzenaminium ethane-1,2-disulfonate] | 2839 ng·h/mL | 3197 ng·h/mL | 435 ng/mL | – | – | – | – | – | AUC0-t [2, 17]: 2126 ng·h/mL; AUCinf [2, 17]: 2162 ng·h/mL; Cmax [2, 17]: 525 ng/mL
7 | Cc1ccc(NC(=O)[C@H]2CCCN(C(=O)c3c(C)cccc3F)[C@H]2c2ccc(NC3CCCC3)cc2)cc1C(F)(F)F [Napadisylate Salt (Form I), N-cyclopentyl-4-((2R,3S)-1-(2-fluoro-6-methylbenzoyl)-3-((4-methyl-3-(trifluoromethyl)phenyl)-carbamoyl)piperidin-2-yl)benzenaminium naphthalene-1,5-disulfonate] | 3417 ng·h/mL | 3478 ng·h/mL | 718 ng/mL | No change in XRPD | did not result in any appreciable decomposition | remained the same | did not result in any appreciable decomposition | did not result in any appreciable decomposition | AUC0-t [2, 18]: 5856 ng·h/mL; AUCinf [2, 18]: 7743 ng·h/mL; Cmax [2, 18]: 753 ng/mL; DVS weight change from 5% to 95% relative humidity (RH) [3, 19]: 1.42%; DVS weight change from about 0% RH to about 55% relative humidity [3, 19]: about 0.6%
